In US8486693B2, “Modified dendritic cells having enhanced survival and immunogenicity and related compositions and methods” (Bellicum Pharmaceuticals, Inc., priority 2006, dated 2013):

Tested on: NF-.kappa.B
Experiment: NF-.kappa.B/SEAP reporter assay in Jurkat-TAg cells (Example 10, iAkt)
Format: cell-based, human
Method: Jurkat-TAg cells in logarithmic-phase growth were electroporated ([…], 250 V; Gene Pulser II (BIO-RAD)) with expression plasmids and the NF-.kappa.B-SEAP reporter plasmid. After 24 hours, transfected cells were stimulated with sub-optimal levels of the phorbol ester PMA (5 ng/ml) along with log dilutions of the heterodimerizing CID, AP22783, and additional treatments. After an additional 24 hours, supernatants were assayed for SEAP activity.
Two key requirements for efficient synthetic regulation of a biological event are highly specific conditional dependency and low background. […] Therefore, in order to optimize iAkt, an NF-.kappa.B-responsive secreted alkaline phosphatase (SEAP) reporter plasmid was used as an assay for Akt activation.
Briefly, the human T cell line, Jurkat-TAg, was cotransfected with reporter plasmid, NF-.kappa.B/SEAP, along with constitutively active M-Akt expression vector or empty control vector. Twenty-four hours after transfection, cells were divided into aliquots that were stimulated with sub-optimal levels (5 ng/ml) of the phorbol ester, PMA, or were untreated. After an additional 24 hours, SEAP activity was measured. Although Akt activity alone was insufficient to induce measurable NF-.kappa.B activity, M-Akt expression potentiated (by 3-4 fold) PKC-induced NF-.kappa.B activity, consistent with multiple reports. […]

Molecule	NF-.kappa.B activation by M-Akt plus PKC in presence of inhibitor (LY294002 5 μM, wortmannin 1 μM, R0318220 1 μM)	NF-.kappa.B induction on CID (AP22783)-mediated membrane recruitment via M-FRB12 (5 ng/ml PMA, log dilutions of AP22783)
Cn1cc(C2=C(c3cn(CCCSC(=N)N)c4ccccc34)C(=O)NC2=O)c2ccccc21 [R0318220]	complete inhibition of NF-.kappa.B	
Akt.KM: kinase-dead mutant (K179M) chimeric Akt (protein, UniProt P31750 1-480, looked up, variant K179M, chimeric) RAC-alpha …: MNDVAIVKEGWLHKRGEYIKTWRPRYFLLKNDGTFIGYKERPQDVDQRESPLNNFSVAQCQLMKTERPRPNTFIIRCLQWTTVIERTFHVETPEEREEWATAIQTVADGLKRQEEETMDFRSGSPSDNSGAEEMEVSLAKPKHRVTMNEFEYLKLLGKGTFGKVILVKEKATGRYYAMMILKKEVIVAKDEVAHTLTENRVLQNSRHPFLTALKYSFQTHDRLCFVMEYANGGELFFHLSRERVFSEDRARFYGAEIVSALDYLHSEKNVVYRDLKLENLMLDKDGHIKITDFGLCKEGIKDGATMKTFCGTPEYLAPEVLEDNDYGRAVDWWGLGVVMYEMMCGRLPFYNQDHEKLFELILMEEIRFPRTLGPEAKSLLSGLLKKDPTQRLGGGSEDAKEIMQHRFFANIVWQDVYEKKLSPPFKPQVTSETDTRYFDEEFTAQMITITPPDQDDSMECVDSERRPHFPQFSYSASGTA		no detectable effect on NF-.kappa.B induction over PMA alone
